# Where two headings read alike, the source gives them in different places.
# Experiments:
# [1] = Test B: Cytotoxicity assay; type: cell-based; conditions: human, uninfected MT-4 cells, same protocol as Test A, CellTiter-Glo
# Protocol: (§1) For the antiviral assay, 40 μL of 1× test concentration of 3-fold serially diluted compound in culture medium with 10% FBS was added to each well of a 384-well plate (10 concentrations) in quadruplicate. MT-4 cells were next mixed with HIV-IIIb at an m.o.i of 0.003 for 1 hour, after which time 35 μL of virus/cell mixture (2000 cells) was immediately added to each well containing 40 μL of diluted compound. The plates were then incubated at 37° C. for 5 days. After 5 days of incubation, 25 μl of 2× concentrated CellTiter-Glo™ Reagent (catalog #G7571, Promega Biosciences, Inc., Madison, Wis.) was added to each well containing MT-4 cells. Cell lysis was carried out by incubating at room temperature for 10 min and then chemiluminescence was read.
# Test B:Cytotoxicity assay
# Compound cytotoxicity and the corresponding CC50 values was determined using the same protocol as described in the antiviral assay (Test A) except that uninfected cells were used.
# [2] = test system: HIV-IIIb; experiment: Test A: Antiviral Assay in MT4 Cells; type: cell-based, HIV-1; conditions: read-out: % inhibition at 6 μM
# Protocol: Test A: Antiviral Assay in MT4 Cells
# as §1
# [3] = Human immunodeficiency virus 1, MT4, 120 h, percent inhibition of virus-induced cell killing at 6 μM drug concentration, from the dose response curve, MT-4 cells infected with HIV-IIIb, 5 days
# [4] = Human immunodeficiency virus 1, IIIB, MT4, 120 h
Structure (SMILES),CC50 at 5 days [1] [µM],"inhibition at 6 µM [2, 3] [%]","inhibition at 6 µM [2, 4] [%]"
"O=C(Cc1c[nH]c2ccc(F)cc12)N[C@@H](Cc1cc(F)cc(F)c1)c1nocc1-c1ccc(Cl)cc1 [Compound 25I, (S)—N-(1-(4-(4-chlorophenyl)isoxazol-3-yl)-2-(3,5-difluorophenyl)ethyl)-2-(5-fluoro-1H-indol-3-yl)acetamide]",9.89,68,–
"O=C(Cn1nc(C(F)(F)F)c2c1CCCC2)N[C@@H](Cc1cc(F)cc(F)c1)c1nocc1-c1ccc(Cl)cc1 [Compound 27, (S)—N-(1-(4-(4-chlorophenyl)isoxazol-3-yl)-2-(3,5-difluorophenyl)ethyl)-2-(3-(trifluoromethyl)-4,5,6,7-tetrahydro-1H-indazol-1-yl)acetamide]",6.17,28,–
"Cn1cnc(C(Cc2cc(F)cc(F)c2)NC(=O)Cc2c[nH]c3ccc(F)cc23)c1-c1ccc(Cl)cc1 (centres unmarked) [Compound 29G, N-(1-(5-(4-chlorophenyl)-1-methyl-1H-imidazol-4-yl)-2-(3,5-difluorophenyl)ethyl)-2-(5-fluoro-1H-indol-3-yl)acetamide]",10.8,–,44
"Cn1cnc(C(Cc2cc(F)cc(F)c2)NC(=O)Cn2nc(C(F)(F)F)c3c2CCCC3)c1-c1ccc(Cl)cc1 (centres unmarked) [Compound 30, N-(1-(5-(4-chlorophenyl)-1-methyl-1H-imidazol-4-yl)-2-(3,5-difluorophenyl)ethyl)-2-(3-(trifluoromethyl)-4,5,6,7-tetrahydro-1H-indazol-1-yl)acetamide]",11,69,–
"Cn1cnc(C(Cc2cc(F)cc(F)c2)NC(=O)Cc2c[nH]c3ccc(C(F)(F)F)cc23)c1-c1ccc(Cl)cc1 (centres unmarked) [Compound 32, N-(1-(5-(4-chlorophenyl)-1-methyl-1H-imidazol-4-yl)-2-(3,5-difluorophenyl)ethyl)-2-(5-(trifluoromethyl)-1H-indol-3-yl)acetamide]",11.9,0,–
"O=C(Cc1c[nH]c2ccc(O)cc12)NC(Cc1cc(F)cc(F)c1)c1ncoc1-c1ccc(Cl)cc1 (centres unmarked) [Compound 34, N-(1-(5-(4-chlorophenyl)oxazol-4-yl)-2-(3,5-difluorophenyl)ethyl)-2-(5-hydroxy-1H-indol-3-yl)acetamide]",22.1,0,–
"COc1ccc2[nH]cc(CC(=O)NC(Cc3cc(F)cc(F)c3)c3ncoc3-c3ccc(Cl)cc3)c2n1 (centres unmarked) [Compound 35, N-(1-(5-(4-chlorophenyl)oxazol-4-yl)-2-(3,5-difluorophenyl)ethyl)-2-(5-methoxy-1H-pyrrolo[3,2-b]pyridin-3-yl)acetamide]",15.3,0,–
"O=C(Cn1nc(C(F)(F)F)c2c1CCCC2)NC(Cc1cc(F)cc(F)c1)c1ncoc1-c1ccc(Cl)cc1 (centres unmarked) [Compound 36, N-(1-(5-(4-chlorophenyl)oxazol-4-yl)-2-(3,5-difluorophenyl)ethyl)-2-(3-(trifluoromethyl)-4,5,6,7-tetrahydro-1H-indazol-1-yl)acetamide]",16.3,–,0
"O=C(Cc1c[nH]c2ccc(F)cc12)NC(Cc1cc(F)cc(F)c1)c1ncoc1-c1ccc(Cl)cc1 (centres unmarked) [Compound 37, N-(1-(5-(4-chlorophenyl)oxazol-4-yl)-2-(3,5-difluorophenyl)ethyl)-2-(5-fluoro-1H-indol-3-yl)acetamide]",10.2,0,–
"O=C(Cc1c[nH]c2ccc(O)nc12)NC(Cc1cc(F)cc(F)c1)c1ncoc1-c1ccc(Cl)cc1 (centres unmarked) [Compound 38, N-(1-(5-(4-chlorophenyl)oxazol-4-yl)-2-(3,5-difluorophenyl)ethyl)-2-(5-hydroxy-1H-pyrrolo[3,2-b]pyridin-3-yl)acetamide]",19.1,0,–

# From patent US9789089B2 (Gilead Sciences, Inc., priority 2013, dated 2017)
